According to ChEMBL document CHEMBL4145694 (J Med Chem, 2018):
The source made the active and inactive calls. No cut-off for these calls is given here.

Experiments:
[1] = molecular target: Kappa-type opioid receptor (Homo sapiens) (UniProt P41145); test: Agonist activity at human kappa-opioid receptor expressed in CHO cell membranes assessed as stimulation of [35S]GTPgammaS binding at 10 uM incubated for 60 mins by scintillation counting method; type: functional
[2] = molecular target: Kappa-type opioid receptor (Homo sapiens) (UniProt P41145); test: Antagonist activity at human kappa-opioid receptor expressed in CHO cell membranes assessed as inhibition of U69593-induced [35S]GTPgammaS binding incubated for 60 mins by scintillation counting method; type: functional
[3] = molecular target: Delta-type opioid receptor (Homo sapiens) (UniProt P41143); test: Agonist activity at human delta-opioid receptor expressed in CHO cell membranes assessed as stimulation of [35S]GTPgammaS binding at 10 uM incubated for 60 mins by scintillation counting method; type: functional
Delta-type opioid receptor (Homo sapiens), sequence (P41143 whole entry): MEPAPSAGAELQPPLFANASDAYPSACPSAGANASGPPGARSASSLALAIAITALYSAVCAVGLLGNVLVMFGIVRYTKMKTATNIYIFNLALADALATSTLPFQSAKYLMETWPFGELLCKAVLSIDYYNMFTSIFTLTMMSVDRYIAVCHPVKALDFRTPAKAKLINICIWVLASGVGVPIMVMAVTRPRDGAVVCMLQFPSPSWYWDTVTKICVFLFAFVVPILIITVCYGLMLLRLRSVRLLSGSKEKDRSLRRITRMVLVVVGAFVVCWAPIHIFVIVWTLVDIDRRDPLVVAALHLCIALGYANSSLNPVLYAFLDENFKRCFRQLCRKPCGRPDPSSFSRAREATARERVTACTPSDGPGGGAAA

[4] = molecular target: Mu-type opioid receptor (Homo sapiens) (UniProt P35372); test: Antagonist activity at human mu-opioid receptor expressed in CHO cell membranes assessed as inhibition of DAMGO-induced [35S]GTPgammaS binding incubated for 60 mins by scintillation counting method; type: functional
Mu-type opioid receptor (Homo sapiens), sequence (P35372 whole entry): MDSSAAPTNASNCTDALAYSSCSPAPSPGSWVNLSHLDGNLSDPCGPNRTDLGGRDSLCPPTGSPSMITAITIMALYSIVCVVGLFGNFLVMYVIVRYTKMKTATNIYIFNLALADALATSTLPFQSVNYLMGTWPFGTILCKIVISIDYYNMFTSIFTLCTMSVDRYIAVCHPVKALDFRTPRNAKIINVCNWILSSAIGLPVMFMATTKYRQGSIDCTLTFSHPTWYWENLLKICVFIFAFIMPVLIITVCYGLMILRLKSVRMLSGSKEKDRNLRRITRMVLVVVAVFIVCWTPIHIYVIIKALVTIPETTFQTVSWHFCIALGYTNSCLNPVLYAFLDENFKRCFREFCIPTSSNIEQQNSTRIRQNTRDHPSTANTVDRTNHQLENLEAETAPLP

Homo sapiens [5] = species: Homo sapiens; test: Selectivity index, ratio of Ke for antagonist activity at human mu-opioid receptor expressed in CHO cell membranes to Ke for antagonist activity at human kappa-opioid receptor expressed in CHO cell membranes; type: cell-based
[6] = molecular target: Mu-type opioid receptor (Homo sapiens) (UniProt P35372); test: Agonist activity at human mu-opioid receptor expressed in CHO cell membranes assessed as stimulation of [35S]GTPgammaS binding at 10 uM incubated for 60 mins by scintillation counting method; type: functional
[7] = molecular target: Delta-type opioid receptor (Homo sapiens) (UniProt P41143); test: Antagonist activity at human delta-opioid receptor expressed in CHO cell membranes assessed as inhibition of DPDPE-induced [35S]GTPgammaS binding incubated for 60 mins by scintillation counting method; type: functional
Homo sapiens [8] = species: Homo sapiens; test: Selectivity index, ratio of Ke for antagonist activity at human delta-opioid receptor expressed in CHO cell membranes to Ke for antagonist activity at human kappa-opioid receptor expressed in CHO cell membranes; type: cell-based
[9] = Ratio of AUClast in brain to plasma of Sprague-Dawley CD rat at 5 mg/kg, sc administered as single dose measured over 1 to 168 hrs post dose by LC/MS-MS method; type: ADME, organism-based; settings: Sprague-Dawley CD, brain and plasma, read-out: BPR

Kappa-type opioid receptor (Homo sapiens), sequence (P41145 whole entry): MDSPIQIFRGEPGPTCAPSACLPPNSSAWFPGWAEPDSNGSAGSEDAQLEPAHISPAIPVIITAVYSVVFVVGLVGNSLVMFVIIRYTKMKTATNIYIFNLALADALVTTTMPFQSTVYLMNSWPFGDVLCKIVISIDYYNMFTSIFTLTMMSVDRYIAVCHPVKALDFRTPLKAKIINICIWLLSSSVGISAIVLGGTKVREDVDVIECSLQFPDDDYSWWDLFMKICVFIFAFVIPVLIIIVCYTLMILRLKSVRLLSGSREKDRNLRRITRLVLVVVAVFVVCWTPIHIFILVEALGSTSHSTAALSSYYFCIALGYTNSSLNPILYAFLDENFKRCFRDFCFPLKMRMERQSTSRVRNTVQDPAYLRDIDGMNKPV

For COC1CCN(C[C@@H](NC(=O)[C@H]2Cc3ccc(O)cc3CN2)C(C)C)CC1, the Activity [1] was “inactive”, the Ke [2] was 6.53 nM and the Activity [3] was “inactive”. For the same compound, the Ke [4] was 198 nM, the Ratio Ke (Homo sapiens [5]) was 30 and the Activity [6] was “inactive”.

With CC(C)[C@@H](CN1CCCCC1)NC(=O)[C@H]1Cc2ccc(O)cc2CN1 the Activity [1] was “inactive”, the Activity [3] was “inactive” and the Activity [6] was “inactive”.

In the case of CC1CCN(C[C@@H](NC[C@H]2Cc3ccc(O)cc3CN2)C(C)C)CC1, the Activity [1] is reported as “inactive”, the Activity [3] is reported as “inactive” and the Activity [6] is reported as “inactive”.

For CC(C)[C@@H](CN1CCN(C)CC1)NC(=O)[C@H]1Cc2ccc(O)cc2CN1, the Activity [1] was “inactive”, the Ke [2] was 98.8 nM and the Activity [3] was “inactive”. For the same compound, the Ke [4] was 915 nM, the Ratio Ke (Homo sapiens [5]) was 9 and the Activity [6] was “inactive”.

In the case of CC1CCN(C[C@H](NC(=O)[C@@H]2Cc3ccc(O)cc3CN2)C(C)C)CC1, the Activity [1] is reported as “inactive”, the Activity [3] is reported as “inactive” and the Ke [7] is reported as > 3000 nM. For the same compound, the Activity [6] was “inactive”.

In the case of CC1=CCCN(C[C@@H](NC(=O)[C@H]2Cc3ccc(O)cc3CN2)C(C)C)C1, the Activity [1] is reported as “inactive”, the Activity [3] is reported as “inactive” and the Activity [6] is reported as “inactive”.

With O=C(NCCN1CCCCC1)[C@H]1Cc2ccc(O)cc2CN1 the Activity [1] was “inactive”, the Activity [3] was “inactive” and the Activity [6] was “inactive”.

For CC1=CCN(C[C@@H](NC(=O)[C@H]2Cc3ccc(O)cc3CN2)C(C)C)CC1, the Activity [1] was “inactive”, the Activity [3] was “inactive” and the Activity [6] was “inactive”.

In the case of CC(C)[C@@H](CN1CC[C@@H](C)[C@@H](C)C1)NC(=O)[C@H]1Cc2ccc(O)cc2CN1 (mixture of isomers), the Activity [1] is reported as “inactive”, the Activity [3] is reported as “inactive” and the Activity [6] is reported as “inactive”.

CC(C)[C@@H](CN1CC[C@@](C)(c2cccc(O)c2)[C@@H](C)C1)NC(=O)[C@H]1Cc2ccc(O)cc2CN1C gave a Ratio Ke (Homo sapiens [8]) of 3070 and a Ratio Ke (Homo sapiens [5]) of 1310.

In the case of CC1CCN(C[C@@H](NC(=O)[C@@H]2CCc3cc(O)ccc3C2)C(C)C)CC1, the Activity [1] is reported as “inactive”, the Activity [3] is reported as “inactive” and the Activity [6] is reported as “inactive”.

For CC(C)[C@@H](CN1CCCC1)NC(=O)[C@H]1Cc2ccc(O)cc2CN1, the Activity [1] was “inactive”, the Activity [3] was “inactive” and the Activity [6] was “inactive”.

With CC(C)[C@@H](CN1CC[C@H](C)[C@@H](C)C1)NC(=O)[C@H]1Cc2ccc(O)cc2CN1 (mixture of isomers) the Activity [1] was “inactive”, the Activity [3] was “inactive” and the Activity [6] was “inactive”.

For CC(C)[C@@H](CN1CCC(C(F)(F)F)CC1)NC(=O)[C@H]1Cc2ccc(O)cc2CN1, the Activity [1] was “inactive”, the Ke [2] was 4.69 nM and the Activity [3] was “inactive”. The Ke [4] was 67.9 nM, the Ratio Ke (Homo sapiens [5]) was 14 and the Activity [6] was “inactive”.

In the case of CC1CCCN(C[C@@H](NC(=O)[C@H]2Cc3ccc(O)cc3CN2)C(C)C)C1 (mixture of isomers), the Activity [1] is reported as “inactive”, the Activity [3] is reported as “inactive” and the Activity [6] is reported as “inactive”.

With CC1CCN(C[C@@H](NC(=O)[C@H]2Cc3ccc(O)cc3CN2)C2CC2)CC1 the Activity [1] was “inactive”, the Activity [3] was “inactive” and the Activity [6] was “inactive”.

With CC(C)[C@@H](CN1CCC(N(C)C)CC1)NC(=O)[C@H]1Cc2ccc(O)cc2CN1 the Activity [1] was “inactive”, the Ke [2] was 8.08 nM and the Activity [3] was “inactive”. For the same compound, the Ke [4] was 318 nM, the Ratio Ke (Homo sapiens [5]) was 39 and the Activity [6] was “inactive”.

With CC(C)[C@@H](CN1C2CCC1CC2)NC(=O)[C@H]1Cc2ccc(O)cc2CN1 the Activity [1] was “inactive”, the Activity [3] was “inactive” and the Activity [6] was “inactive”.

In the case of CCC1CCN(C[C@@H](NC(=O)[C@H]2Cc3ccc(O)cc3CN2)C(C)C)CC1, the Activity [1] is reported as “inactive”, the Ke [2] is reported as 2.48 nM and the Activity [3] is reported as “inactive”. It also gave a Ke [4] of 74.8 nM, a Ke [7] of 2490 nM and a Ratio Ke (Homo sapiens [8]) of 1000. The Ratio Ke (Homo sapiens [5]) was 30 and the Activity [6] was “inactive”.

For CC1CC(C)CN(C[C@@H](NC(=O)[C@H]2Cc3ccc(O)cc3CN2)C(C)C)C1 (stereo not given in full), the Activity [1] was “inactive”, the Activity [3] was “inactive” and the Activity [6] was “inactive”.

For CC(C)[C@@H](CN1CCCCC1=O)NC(=O)[C@H]1Cc2ccc(O)cc2CN1, the Activity [1] was “inactive”, the Activity [3] was “inactive” and the Activity [6] was “inactive”.

In the case of CC(C)[C@@H](CN1CCC(C)(C)CC1)NC(=O)[C@H]1Cc2ccc(O)cc2CN1, the Activity [1] is reported as “inactive”, the Activity [3] is reported as “inactive” and the Ke [4] is reported as 142 nM. The Ke [7] was 847 nM, the Ratio Ke (Homo sapiens [8]) was > 237 and the Ratio Ke (Homo sapiens [5]) was 40. For the same compound, the Activity [6] was “inactive”.

With CC1CCN(C[C@@H](NC(=O)c2ccc3cc(O)ccc3c2)C(C)C)CC1 the Activity [1] was “inactive”, the Activity [3] was “inactive” and the Activity [6] was “inactive”.

With CC(C)[C@@H](CN1CC=CCC1)NC(=O)[C@H]1Cc2ccc(O)cc2CN1 the Activity [1] was “inactive”, the Activity [3] was “inactive” and the Activity [6] was “inactive”.

For CC(C)[C@@H](CN1CCCCC1C)NC(=O)[C@H]1Cc2ccc(O)cc2CN1 (mixture of isomers), the Activity [1] was “inactive”, the Ke [2] was 15.1 nM and the Activity [3] was “inactive”. For the same compound, the Ke [4] was 44.9 nM, the Ratio Ke (Homo sapiens [5]) was 3 and the Activity [6] was “inactive”.

For CCN(CC)C[C@@H](NC(=O)[C@H]1Cc2ccc(O)cc2CN1)C(C)C, the Activity [1] was “inactive”, the Activity [3] was “inactive” and the Ratio Ke (Homo sapiens [5]) was 16.5. For the same compound, the Activity [6] was “inactive”.

With CC(C)[C@@H](CN1CCOCC1)NC(=O)[C@H]1Cc2ccc(O)cc2CN1 the Activity [1] was “inactive”, the Ke [2] was 396 nM and the Activity [3] was “inactive”. The Activity [6] was “inactive”.

For CC(C)[C@@H](CN1CCC(F)(F)CC1)NC(=O)[C@H]1Cc2ccc(O)cc2CN1, the Activity [1] was “inactive”, the Ke [2] was 11.8 nM and the Activity [3] was “inactive”. For the same compound, the Ke [4] was 604 nM, the Ratio Ke (Homo sapiens [5]) was 51 and the Activity [6] was “inactive”.

For CC(C)[C@@H](CN1CCC(C(F)F)CC1)NC(=O)[C@H]1Cc2ccc(O)cc2CN1, the Activity [1] was “inactive”, the Ke [2] was 3.45 nM and the Activity [3] was “inactive”. The Ke [4] was 70.9 nM and the Activity [6] was “inactive”.

For CCCN(CCC)C[C@@H](NC(=O)[C@H]1Cc2ccc(O)cc2CN1)C(C)C, the Activity [1] was “inactive”, the Activity [3] was “inactive” and the Activity [6] was “inactive”.

In the case of CC1CCN(C[C@H](NC(=O)[C@H]2Cc3ccc(O)cc3CN2)C(C)C)CC1, the Activity [1] is reported as “inactive”, the Activity [3] is reported as “inactive” and the Ke [7] is reported as > 3000 nM. The Activity [6] was “inactive”.

With CC(C)[C@@H](CN1CCCCCC1)NC(=O)[C@H]1Cc2ccc(O)cc2CN1 the Activity [1] was “inactive”, the Activity [3] was “inactive” and the Activity [6] was “inactive”.

In the case of CC1=C(C)CN(C[C@@H](NC(=O)[C@H]2Cc3ccc(O)cc3CN2)C(C)C)CC1, the Activity [1] is reported as “inactive”, the Activity [3] is reported as “inactive” and the Activity [6] is reported as “inactive”.

With CC(C)[C@@H](CN1CCC(C(N)=O)CC1)NC(=O)[C@H]1Cc2ccc(O)cc2CN1 the Activity [1] was “inactive”, the Ke [2] was 3.22 nM and the Activity [3] was “inactive”. The Ke [4] was 129 nM, the Ratio Ke (Homo sapiens [5]) was 40 and the Activity [6] was “inactive”.

Compound CC(C)[C@@H](CN1CC[C@@](C)(c2cccc(O)c2)[C@@H](C)C1)NC(=O)[C@H]1Cc2ccc(O)cc2CN1 [JDTIC] has a Kp [9] of 7.

For CC1CCN(C[C@@H](NC(=O)[C@@H]2Cc3ccc(O)cc3CN2)C(C)C)CC1, the Activity [1] was “inactive”, the Activity [3] was “inactive” and the Ke [7] was > 3000 nM. The Activity [6] was “inactive”.

For CC(C)CN(CC(C)C)C[C@@H](NC(=O)[C@H]1Cc2ccc(O)cc2CN1)C(C)C, the Activity [1] was “inactive”, the Ke [2] was 137 nM and the Activity [3] was “inactive”. For the same compound, the Activity [6] was “inactive”.

In the case of CC(C)[C@@H](CN1CCC(C#N)CC1)NC(=O)[C@H]1Cc2ccc(O)cc2CN1, the Activity [1] is reported as “inactive”, the Ke [2] is reported as 12.7 nM and the Activity [3] is reported as “inactive”. For the same compound, the Ke [4] was 647 nM, the Ratio Ke (Homo sapiens [5]) was 51 and the Activity [6] was “inactive”.

In the case of CC1CCN(C[C@@H](NC(=O)[C@H](N)Cc2ccc(O)cc2)C(C)C)CC1, the Activity [1] is reported as “inactive”, the Activity [3] is reported as “inactive” and the Activity [6] is reported as “inactive”.
